The test system of one assay is mouse osteoblasts. As to the kind of experiment: ALP activity determination in mouse osteoblasts. It counts as cell-based. The conditions noted are these: 300 μM; differentiation medium; Day 7. How it is done: (§1) Seven days after differentiation, the culture supernatant was removed from each plate and the cells were fixed with an acetone/ethanol solution. The ALP activity was determined using p-nitrophenyl phosphate as a substrate. Specifically, a carbonate buffer (5 mM MgCl2, 50 mM NaHCO3) containing p-nitrophenyl phosphate (Nacalai) (1 mg/mL) was added to each well (100 μL/well), followed by incubation at 37° C. Then, the OD value at 405 nm was determined with the use of a microplate reader (BMG Labtech) for each well.
For experiments, a goat polyclonal mRANKL antibody (R&D, Saint Cruz), monoclonal mRANKL antibodies ((A): clone 88227 (R&D); (B): clone 12A668) (ALEXIS), and synthetic peptide D were used. As negative controls, goat IgG (ZYMED) and a control peptide were used. Synthetic peptide D and the control peptide used were the same as those used in Example 1. […] ALP activity determination was carried out as in Example 1.
Newborn mouse calvarias were immersed in an enzyme solution (0.1% collagenase (Wako)+0.2% Dispase (GODO SHUSEI CO., LTD.)), followed by shaking in a thermostatic bath at 37° C. for 5 minutes. The initial floating cell fraction was removed therefrom and a new enzyme solution (10 mL) was added thereto, followed by another instance of shaking in a thermostatic bath at 37° C. for 10 minutes. The above operations were repeated 4 times. […]

A further assay relates to Smad1/5/8. As to the kind of experiment: Western blotting of Smad1/5/8 phosphorylation in MC3T3-E1 cells. It counts as cell-based, mouse. The conditions noted are these: up to 3 hours after the addition; 200 μM peptide D or 200 ng/ml BMP-2. The procedure:
(§2) MC3T3-E1 cells mixed with 10% FBS+αMEM (SIGMA) were seeded on a 6-well plate (7.5×10^4 cells/well). […] The medium was removed at the respective time points shown in the relevant figures. PBS was added to the cells, and the cells were collected with a scraper (Falcon). A cell pellet was obtained via centrifugation at 1200 rpm for 5 min at 4° C. RIPA buffer (100 μL) was added to the collected pellet, for dissolution of the cellular membrane. Further, the resultant was centrifuged under conditions of 14500 rpm for 25 min at 4° C. The supernatant was collected as a cell extract. A portion of the cell extract was used for quantification of the protein concentration with the use of a BCA protein assay kit (PIERCE). For SDS-PAGE, a sample buffer in an amount that was ¼ that of the cell extract (Fermentas) was added thereto, followed by heating at 95° C. for 5 min. The prepared sample was applied in an amount of 7.5 or 10 μg to 10% polyacrylamide gel (BioRad), followed by electrophoresis at 170 V for 1 hour. After electrophoresis, the electrophoresed sample was transferred to a PVDF membrane (Millipore) at 80 mA for 40 min. The membrane was shaken in a blocking solution (Nacalai) at room temperature for 1 hour and then a primary antibody was added thereto, followed by shaking at room temperature for 1 hour at 4° C. for 12 hours. […]
A general note: In western blotting, separated proteins are transferred to a membrane and probed.

The subject of the next assay is Human osteoblasts. As to the kind of experiment: ALP activity determination in human osteoblasts. It counts as cell-based. The conditions noted are these: antibodies 100 ng/mL or 1 ng/mL; culture for 5 or 6 days. The procedure:
as §1
The reagents such as anti-RANKL polyclonal antibodies and anti-RANKL monoclonal antibodies used in this Example were the same as those used in Example 4. In addition, an anti-RANKL monoclonal antibody ((C): clone 12A380) (ALEXIS), human OPGFc, and human RANKFc (R&D)) were used. ALP activity determination was carried out as in Example 1. All of the above antibodies are antibodies against mouse RANKL.
Human osteoblasts were seeded on a 96-well plate (3.1×10^3/well) and a 48-well plate (7.65×10^3/well). After cell adhesion had taken place, differentiation was carried out using a medium containing 5 mM β-glycerophosphoric acid. The antibodies were added (100 ng/mL or 1 ng/mL) upon differentiation. Culture was carried out for 5 or 6 days, followed by ALP activity determination.

The next assay relates to MAP kinase p38. As to the kind of experiment: Western blotting of p38 phosphorylation in MC3T3-E1 cells. It counts as cell-based, mouse. As to conditions: 200 μM peptide D. How it is done:
as §2

Bridges are numbered along the chain shown (N, C = ends). Where no end group is shown, it is not given here.

Turning to “peptide D: cyclic peptide of SEQ ID NO: 7, 9 amino acids, two cysteine residues bound via a disulfide bond; binds to RANKL (YCWSQYLCY; disulfide 2-8 (inferred))”, the ALP activation entry with mouse osteoblasts is on record as “caused an increase in the degree of ALP activation”. The “phosphorylation of Smad1/5/8” value in the assay on Smad1/5/8 is on record as “not induced”. Moreover, the ALP activity result with Human osteoblasts is reported as “significant increase in ALP activity”. For the same substance, the values for the p38 phosphorylation result in the assay with MAP kinase p38 (12 hours after the addition) and with MAP kinase p38 (within a short period of time after the addition) were “significant p38 phosphorylation” and “no significant changes”, respectively.

(Values after patent publication US20100260680A1, “NOVEL BONE MASS INCREASING AGENT” (ORIENTAL YEAST CO., LTD., priority 2007, published 2010).)
